According to publication PMC5574958, “Radiosynthesis and Preclinical Evaluation of [^18F]F-DPA, A Novel Pyrazolo[1,5a]pyrimidine Acetamide TSPO Radioligand, in Healthy Sprague Dawley Rats” (Molecular Imaging and Biology, 2017):
pKi: −log10 of the molar value.

Columns and labels:
CBR = conditions: read-out: K i CBR (selectivity); cited from earlier work
[1] = Plasma protein binding (ultrafiltration of plasma after tracer injection); format: in vivo, Sprague Dawley rats; conditions: 15 min after injection, 30 kDa ultrafiltration, n = 3
Description: After 15 min, the animals were sacrificed and the blood was collected into Li-heparin tubes and centrifuged (3000×g, 10 min). A 10-μl aliquot of the plasma was spotted onto a TLC plate; following this, the remaining plasma was filtered by ultrafiltration using Microsep 30K Omega (Pall Life Sciences, Mexico) with a cut-off of 30 kDa. A 10-μl aliquot of the resulting supernatant was also spotted onto the TLC plate. The plates were exposed onto an imaging plate (Fuji BAS Imaging Plate TR2025, Fuji Photo Film Co., Ltd., Tokyo, Japan) for approximately two half-lives of fluorine-18 (3.5 to 4 h). After the exposure, the imaging plates were scanned using a BAS-5000 reader (Fuji, Japan) with a resolution of 50 μm and the saved images were analyzed using TINA software (version 2.10 g, Raytest, Isotopenmessgeräte, GmbH, Straubenhardt, Germany).

Ex vivo biodistribution = format: in vivo, Sprague Dawley rats; conditions: for Uptake of fluorine-18-radioactivity, Harderian gland / Uptake of fluorine-18-radioactivity, Brain / Uptake of fluorine-18-radioactivity, Brown fat / Uptake of fluorine-18-radioactivity, Eye x2 / Uptake of fluorine-18-radioactivity, Injection site (tail) / Uptake of fluorine-18-radioactivity, Large int. Wall + contents / Uptake of fluorine-18-radioactivity, Liver / Uptake of fluorine-18-radioactivity, Lung / Uptake of fluorine-18-radioactivity, Muscle / Uptake of fluorine-18-radioactivity, Salivary x2 / Uptake of fluorine-18-radioactivity, Small int. wall + contents / Uptake of fluorine-18-radioactivity, Stomach wall + contents / Uptake of fluorine-18-radioactivity, Testis: mean, n = 3
Description: After sacrifice (5, 15, 30, 60, and 90 min after injection, n = 3, for every time point and radiotracer), the blood was collected into Li-heparin tubes and transcardial perfusion with saline was conducted rapidly in order to eliminate the blood from the whole body. Following this, the organs of the animals were collected, individually weighed, and the radioactivity was measured using a gamma counter (Wizard^2 3 × 3″, PerkinElmer, Turku, Finland). The decay-corrected radioactivity is reported as percentage of injected dose per gram (%ID/g).

[2] = In vivo PET/CT imaging, time-activity curves; set-up: species or system Sprague Dawley rats
Description: Rats were anesthetized with isoflurane/oxygen gas and injected intravenously with [^18F]F-DPA (31.4 ± 2.1 MBq, n = 4 SA at the time of injection = 4.1 ± 0.4 GBq/μmol) for scanning by an Inveon multimodality PET/CT tomograph (Siemens Medical Solutions, Knoxville, TN, USA). In order to prevent eye dryness, a few drops of Oftagel (25 mg/g; Santen, Tampere, Finland) were applied to the eyes of the animals. The scanner has a 12.7 cm axial field of view (FOV) and 10 cm transaxial FOV generating images from 159 transaxial slices. The spatial resolution of the scanner is 1.4 mm according to the manufacturer’s specifications. The animals were scanned for 10 min with computed tomography (CT) for attenuation correction and anatomical reference, and immediately after that, the radiotracer was injected for a 60-min dynamic PET scan. Frames were taken at the following intervals: 30 × 10, 15 × 60, 4 × 300, and 2 × 600 s. Volume of interests (VOIs) were drawn over the whole brain, heart, lung, liver, and kidneys using Inveon Research Workplace Image Analysis software (Siemens Medical Solutions). From the VOIs, time–activity curves (TACs) were obtained and the uptake of [^18F]F-DPA was expressed as percentage of injected dose per milliliter of tissue (%inj. dose/ml).

[3] = RadioTLC analyses of radiometabolites in plasma and brain homogenates; format: in vivo, Sprague Dawley rats; conditions: for Unchanged radiotracer, share of radioactivity in the brain: brain homogenate
Description: The blood samples were taken into Li-heparin tubes and centrifuged (3000×g, 10 min). The plasma was transferred to an Eppendorf tube and the plasma proteins were precipitated by addition of 1.5 parts of MeOH by volume. Following a further centrifugation (12,000×g, 4 min), 20 μl of the supernatant was spotted onto an aluminum-backed silica gel 60/Kieselguhr F254 TLC plate (EMD Millipore 1.05567.0001, Merck Millipore, Darmstadt, Germany).
Brain samples from the cortex were homogenized with approximately 200 μl of 1:1 v/v of MeOH and water; the mixture was transferred to an Eppendorf tube and centrifuged (12,000×g, 4 min). An aliquot (20 μl) of the supernatant was spotted onto the TLC plate.
The TLC plates were developed with a mixture of dichloromethane and methanol (9:1, v/v) for a distance of 6 cm. Following this, the plates were exposed onto an imaging plate (Fuji BAS Imaging Plate TR2025, Fuji Photo Film Co., Ltd., Tokyo, Japan) for approximately two half-lives of fluorine-18 (3.5 to 4 h). After the exposure, the imaging plates were scanned using a BAS-5000 reader (Fuji, Japan) with a resolution of 50 μm and the saved images were analyzed using TINA software (version 2.10 g, Raytest, Isotopenmessgeräte, GmbH, Straubenhardt, Germany).

Fraction of radioactivity unbound to the plasma proteins [1]: 6.6 ± 3.1%
Uptake of fluorine-18-radioactivity, Harderian gland (Ex vivo biodistribution; 5 min after injection): 0.54 %ID/g tissue
Uptake of fluorine-18-radioactivity, Harderian gland (Ex vivo biodistribution; 15 min after injection): 0.59 %ID/g tissue
Uptake of fluorine-18-radioactivity, Harderian gland (Ex vivo biodistribution; 30 min after injection): 0.62 %ID/g tissue
Uptake of fluorine-18-radioactivity, Harderian gland (Ex vivo biodistribution; 60 min after injection): 0.83 %ID/g tissue
Uptake of fluorine-18-radioactivity, Harderian gland (Ex vivo biodistribution; 90 min after injection): 0.55 %ID/g tissue
Uptake of fluorine-18-radioactivity, Brain (Ex vivo biodistribution; 5 min after injection): 0.23 %ID/g tissue
Uptake of fluorine-18-radioactivity, Brain (Ex vivo biodistribution; 15 min after injection): 0.17 %ID/g tissue
Uptake of fluorine-18-radioactivity, Brain (Ex vivo biodistribution; 30 min after injection): 0.09 %ID/g tissue
Uptake of fluorine-18-radioactivity, Brain (Ex vivo biodistribution; 60 min after injection): 0.07 %ID/g tissue
Uptake of fluorine-18-radioactivity, Brain (Ex vivo biodistribution; 90 min after injection): 0.06 %ID/g tissue
Uptake of fluorine-18-radioactivity, Brown fat (Ex vivo biodistribution; 5 min after injection): 0.28 %ID/g tissue
Uptake of fluorine-18-radioactivity, Brown fat (Ex vivo biodistribution; 15 min after injection): 0.43 %ID/g tissue
Uptake of fluorine-18-radioactivity, Brown fat (Ex vivo biodistribution; 30 min after injection): 1.11 %ID/g tissue
Uptake of fluorine-18-radioactivity, Brown fat (Ex vivo biodistribution; 60 min after injection): 0.44 %ID/g tissue
Uptake of fluorine-18-radioactivity, Brown fat (Ex vivo biodistribution; 90 min after injection): 0.95 %ID/g tissue
Blood radioactivity compared with [^18F]DPA-714 (Ex vivo biodistribution; ex vivo %ID/g, two-tailed unpaired t test, P ≤ 0.006): significantly lower
Uptake of fluorine-18-radioactivity, Eye x2 (Ex vivo biodistribution; eye x2, 5 min after injection): 0.32 %ID/g tissue
Uptake of fluorine-18-radioactivity, Eye x2 (Ex vivo biodistribution; eye x2, 15 min after injection): 0.29 %ID/g tissue
Uptake of fluorine-18-radioactivity, Eye x2 (Ex vivo biodistribution; eye x2, 30 min after injection): 0.21 %ID/g tissue
Uptake of fluorine-18-radioactivity, Eye x2 (Ex vivo biodistribution; eye x2, 60 min after injection): 0.16 %ID/g tissue
Uptake of fluorine-18-radioactivity, Eye x2 (Ex vivo biodistribution; eye x2, 90 min after injection): 0.16 %ID/g tissue
Uptake of fluorine-18-radioactivity, Injection site (tail) (Ex vivo biodistribution; 5 min after injection): 0.36 %ID/g tissue
Uptake of fluorine-18-radioactivity, Injection site (tail) (Ex vivo biodistribution; 15 min after injection): 0.38 %ID/g tissue
Uptake of fluorine-18-radioactivity, Injection site (tail) (Ex vivo biodistribution; 30 min after injection): 0.28 %ID/g tissue
Uptake of fluorine-18-radioactivity, Injection site (tail) (Ex vivo biodistribution; 60 min after injection): 0.42 %ID/g tissue
Uptake of fluorine-18-radioactivity, Injection site (tail) (Ex vivo biodistribution; 90 min after injection): 0.38 %ID/g tissue
Uptake of fluorine-18-radioactivity, Large int. Wall + contents (Ex vivo biodistribution; 5 min after injection): 0.30 %ID/g tissue
Uptake of fluorine-18-radioactivity, Large int. Wall + contents (Ex vivo biodistribution; 15 min after injection): 0.31 %ID/g tissue
Uptake of fluorine-18-radioactivity, Large int. Wall + contents (Ex vivo biodistribution; 30 min after injection): 0.33 %ID/g tissue
Uptake of fluorine-18-radioactivity, Large int. Wall + contents (Ex vivo biodistribution; 60 min after injection): 0.29 %ID/g tissue
Uptake of fluorine-18-radioactivity, Large int. Wall + contents (Ex vivo biodistribution; 90 min after injection): 0.28 %ID/g tissue
Uptake of fluorine-18-radioactivity, Liver (Ex vivo biodistribution; 5 min after injection): 0.77 %ID/g tissue
Uptake of fluorine-18-radioactivity, Liver (Ex vivo biodistribution; 15 min after injection): 0.82 %ID/g tissue
Uptake of fluorine-18-radioactivity, Liver (Ex vivo biodistribution; 30 min after injection): 0.49 %ID/g tissue
Uptake of fluorine-18-radioactivity, Liver (Ex vivo biodistribution; 60 min after injection): 0.43 %ID/g tissue
Uptake of fluorine-18-radioactivity, Liver (Ex vivo biodistribution; 90 min after injection): 0.31 %ID/g tissue
Uptake of fluorine-18-radioactivity, Lung (Ex vivo biodistribution; 5 min after injection): 5.94 %ID/g tissue
Uptake of fluorine-18-radioactivity, Lung (Ex vivo biodistribution; 15 min after injection): 4.04 %ID/g tissue
Uptake of fluorine-18-radioactivity, Lung (Ex vivo biodistribution; 30 min after injection): 2.27 %ID/g tissue
Uptake of fluorine-18-radioactivity, Lung (Ex vivo biodistribution; 60 min after injection): 1.79 %ID/g tissue
Uptake of fluorine-18-radioactivity, Lung (Ex vivo biodistribution; 90 min after injection): 1.47 %ID/g tissue
Uptake of fluorine-18-radioactivity, Muscle (Ex vivo biodistribution; 5 min after injection): 0.07 %ID/g tissue
Uptake of fluorine-18-radioactivity, Muscle (Ex vivo biodistribution; 15 min after injection): 0.07 %ID/g tissue
Uptake of fluorine-18-radioactivity, Muscle (Ex vivo biodistribution; 30 min after injection): 0.09 %ID/g tissue
Uptake of fluorine-18-radioactivity, Muscle (Ex vivo biodistribution; 60 min after injection): 0.11 %ID/g tissue
Uptake of fluorine-18-radioactivity, Muscle (Ex vivo biodistribution; 90 min after injection): 0.12 %ID/g tissue
Uptake of fluorine-18-radioactivity, Salivary x2 (Ex vivo biodistribution; salivary x2, 5 min after injection): 0.70 %ID/g tissue
Uptake of fluorine-18-radioactivity, Salivary x2 (Ex vivo biodistribution; salivary x2, 15 min after injection): 0.82 %ID/g tissue
Uptake of fluorine-18-radioactivity, Salivary x2 (Ex vivo biodistribution; salivary x2, 30 min after injection): 1.56 %ID/g tissue
Uptake of fluorine-18-radioactivity, Salivary x2 (Ex vivo biodistribution; salivary x2, 60 min after injection): 1.21 %ID/g tissue
Uptake of fluorine-18-radioactivity, Salivary x2 (Ex vivo biodistribution; salivary x2, 90 min after injection): 1.00 %ID/g tissue
Uptake of fluorine-18-radioactivity, Small int. wall + contents (Ex vivo biodistribution; 5 min after injection): 1.19 %ID/g tissue
Uptake of fluorine-18-radioactivity, Small int. wall + contents (Ex vivo biodistribution; 15 min after injection): 1.47 %ID/g tissue
Uptake of fluorine-18-radioactivity, Small int. wall + contents (Ex vivo biodistribution; 30 min after injection): 2.00 %ID/g tissue
Uptake of fluorine-18-radioactivity, Small int. wall + contents (Ex vivo biodistribution; 60 min after injection): 1.95 %ID/g tissue
Uptake of fluorine-18-radioactivity, Small int. wall + contents (Ex vivo biodistribution; 90 min after injection): 2.59 %ID/g tissue
Uptake of fluorine-18-radioactivity, Stomach wall + contents (Ex vivo biodistribution; 5 min after injection): 0.50 %ID/g tissue
Uptake of fluorine-18-radioactivity, Stomach wall + contents (Ex vivo biodistribution; 15 min after injection): 0.54 %ID/g tissue
Uptake of fluorine-18-radioactivity, Stomach wall + contents (Ex vivo biodistribution; 30 min after injection): 0.93 %ID/g tissue
Uptake of fluorine-18-radioactivity, Stomach wall + contents (Ex vivo biodistribution; 60 min after injection): 1.07 %ID/g tissue
Uptake of fluorine-18-radioactivity, Stomach wall + contents (Ex vivo biodistribution; 90 min after injection): 0.74 %ID/g tissue
Uptake of fluorine-18-radioactivity, Testis (Ex vivo biodistribution; 5 min after injection): 0.21 %ID/g tissue
Uptake of fluorine-18-radioactivity, Testis (Ex vivo biodistribution; 15 min after injection): 0.28 %ID/g tissue
Uptake of fluorine-18-radioactivity, Testis (Ex vivo biodistribution; 30 min after injection): 0.23 %ID/g tissue
Uptake of fluorine-18-radioactivity, Testis (Ex vivo biodistribution; 60 min after injection): 0.26 %ID/g tissue
Uptake of fluorine-18-radioactivity, Testis (Ex vivo biodistribution; 90 min after injection): 0.27 %ID/g tissue
Excretion pathway ([2]; in vivo TACs, high F-18 radioactivity in the intestine): excreted via the hepatobiliary pathway
Time after injection at which concentration equilibrium is reached in the brain ([2]; whole brain TAC, i.v. injection, 60-min dynamic PET): 20 to 30 min
Unchanged radiotracer, share of radioactivity in the brain ([3]; 20–30 min after injection): greater than 95%
Unchanged radiotracer, share of radioactivity in the brain ([3]; 90 min after injection, n = 3): 93.5 ± 2.8%
Unchanged radiotracer, share of radioactivity in the plasma ([3]; plasma, 90 min after injection, n = 3): 28.3 ± 6.4%
Structure (SMILES): CCN(CC)C(=O)Cc1c(-c2ccc([18F])cc2)nn2c(C)cc(C)nc12 [[^18F]F-DPA]
pKi (CBR): < 6.00
Accumulation of radioactivity in the bone (defluorination in vivo) (Ex vivo biodistribution; after the initial uptake at 5 min, up to 90 min): no significant accumulation of radioactivity in the bone
